# Measured values published in PMC8151276, “An Integrated Approach toward NanoBRET Tracers for Analysis of GPCR Ligand Engagement” (Molecules, 2021).
# How the values were obtained:
# LTB4R2 = molecular target: T1, LTB4R2 (Homo sapiens, UniProt Q9NPC1); assay: NanoBRET screen HiBiT-LTB4R2 in HEK293; type: binding
# T1 construct: purchased Promega (in-house HiBiT-GPCR construct library, NanoBRET)
# T1 sequence (Q9NPC1 1-358): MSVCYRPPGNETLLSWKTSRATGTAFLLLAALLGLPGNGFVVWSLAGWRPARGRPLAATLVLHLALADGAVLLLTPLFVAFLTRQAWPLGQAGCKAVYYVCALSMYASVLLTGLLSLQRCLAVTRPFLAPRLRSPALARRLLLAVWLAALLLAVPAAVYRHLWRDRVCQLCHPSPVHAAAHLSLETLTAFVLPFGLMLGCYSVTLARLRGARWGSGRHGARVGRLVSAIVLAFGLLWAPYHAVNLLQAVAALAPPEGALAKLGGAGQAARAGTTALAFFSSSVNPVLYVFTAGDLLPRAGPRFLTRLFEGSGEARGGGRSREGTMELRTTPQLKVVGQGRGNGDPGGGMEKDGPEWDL
# Protocol: (§1) Each tracer candidate was screened across the entire library of HiBiT-GPCR constructs using NanoBRET as the detection modality. As depicted in Figure 4A, the specificity of interactions was evaluated through decrease in BRET due to competitive displacement of a bound tracer by excess parental compound. Each tracer was analyzed for binding to each HiBiT-GPCR fusion in the absence and in the presence of competing parental compound. Briefly, HEK293 cells were transfected with HiBiT-GPCR constructs diluted into promoterless DNA to reduce expression and maximize translocation to the cell surface. Each tracer candidate was then screened at concentrations of 1 μM and 0.1 μM across cells expressing these fusions. Cells were treated for 1.5 h with tracer either alone or in the presence of 20 μM competing parental compound (i.e., control). BRET was measured upon addition of purified LgBiT and subsequent complementation with HiBiT genetically fused to a GPCR. The specificity of interactions was assessed through a decrease in BRET signal due to competitive displacement of the bound tracer. To further gauge the robustness of these interactions, the fold response over the control (i.e., BRETtracer/BRETcontrol) was calculated. We chose a 1.5-fold response, which translates to ≥7-fold signal over noise as the minimal threshold required to score an interaction as positive. […]. Below we highlight the screening results obtained for our exemplary fluorescent tracers based on Clozapine, Amitriptyline and AZD1283.
# (§2) HiBiT-GPCR DNA constructs were diluted in 10 mM Tris pH 8 to a final concentration of 0.01 μg/μL, arrayed in 96-well plates and stored at −20 °C. For transfection, HEK293 cells were suspended in Opti-MEM (without phenol red) supplemented with 2% fetal bovine serum (Seradigm) and 100 units/mL penicillin–streptomycin (Gibco) at a final concentration of 220,000 cells/mL and dispensed into white 96-well plates at 90 μL/well. Subsequent transfections and screens were carried using an Agilent Bravo Automated Liquid Handling Platform. First, the 96-well HiBiT DNA arrays were diluted 25-fold in Opti-MEM (without serum or phenol red) to a final concentration of 0.0004 μg/μL and 20 μL of the diluted DNAs were transferred into new 96-well plates. Next, promoterless carrier DNA (1 μg/μL) was diluted 25-fold (0.04 μg/μL) and then dispensed into the diluted arrays at 20 μL/well. Following brief mixing, Viafect transfection reagent (Promega) diluted 16-fold into Opti-MEM was dispensed into the plates at 40 μL/well. After mixing by pipetting, plates were incubated for 10 min on the pipetting station deck. The DNA-transfection reagent complexes were then added to plates containing cells. To facilitate the screen, 10 μL of DNA-transfection reagent complexes were added in duplicates to the top 4 and bottom 4 rows, resulting in two identical 48-well arrays per plate. Plates with transfected cells were incubated for 18–20 h at 37 °C/5% CO2. A screen of each tracer across the entire library using two different concentrations requires duplicate plates of transfected cells. Depending on the number of tracers being screened, transfections can be scaled up using the same ratios. The next day, for each tracer, four 20× screening solutions in tracer dilution buffer (Promega) were prepared: two duplicates at final concentration of 20 μM and two duplicates at a final concentration of 2 μM. A competing unmodified compound was added to one of each duplicate at a final concentration of 400 μM. The four resulting solutions were diluted 4-fold in Opti-MEM without serum or phenol red to generate 5× solutions (5 µM and 0.5 µM tracer +/− 100 μM competing compound). To screen the library, a BioTek MultiFlo FX liquid dispenser was used to dispense 22.5 µL of tracer solution to the top 4 rows and 22.5 µL tracer + competing compound solution to the 4 bottom rows. Plates were briefly mixed on an orbital shaker and incubated for 1.5 h at room temperature. […]
# F2RL2 = molecular target: T2, F2RL2 (Homo sapiens, UniProt O00254); assay: NanoBRET screen HiBiT-F2RL2 in HEK293; type: binding
# T2 construct: purchased Promega (in-house HiBiT-GPCR construct library, NanoBRET)
# T2 sequence (O00254 22-374): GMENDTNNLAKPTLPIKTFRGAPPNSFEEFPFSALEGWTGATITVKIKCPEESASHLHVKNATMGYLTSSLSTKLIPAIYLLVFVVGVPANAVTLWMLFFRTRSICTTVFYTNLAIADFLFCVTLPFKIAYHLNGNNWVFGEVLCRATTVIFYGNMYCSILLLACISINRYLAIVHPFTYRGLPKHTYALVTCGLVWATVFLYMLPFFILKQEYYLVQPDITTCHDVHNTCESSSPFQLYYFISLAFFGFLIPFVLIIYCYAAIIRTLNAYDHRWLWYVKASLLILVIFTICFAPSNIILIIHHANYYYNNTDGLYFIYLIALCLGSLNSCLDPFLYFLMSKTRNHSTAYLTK
# Protocol: as §1, §2
# [1] = tracer at 1μM, listed as amitriptyline-b-2-NB590
Structure (SMILES),"NanoBRET Fold Response (LTB4R2; LTB4R2, tracer 0.1μM)","NanoBRET Fold Response (LTB4R2; LTB4R2, tracer 1μM)","NanoBRET Fold Response (F2RL2; F2RL2, tracer 0.1μM)","NanoBRET Fold Response (F2RL2; F2RL2, tracer 1μM)",also measured
Cc1nc2n(c(=O)c1CCN1CCC(c3noc4cc(F)ccc34)CC1)CCCC2OC(=O)NCCOCCOCCOCCOCCNC(=O)CCc1ccc2n1[B-](F)(F)[N+]1=C(c3ccc[nH]3)C=CC1=C2 (stereo not drawn) [Risperidone-2-NB590],0.97,0.94,0.94,1.08,
CCOC(=O)c1cc(C#N)c(N2CCC(C(=O)NS(=O)(=O)Cc3ccccc3/C=C/C(=O)NCCNC(=O)CCc3ccc4n3[B-](F)(F)[N+]3=C(c5ccc[nH]5)C=CC3=C4)CC2)nc1C [AZD1283-1-NB590],,,,,"NanoBRET Fold Response (LTB4R2; LTB4R2, 0.1μM): 1.17; NanoBRET Fold Response (LTB4R2; LTB4R2, 1μM): 1.18; NanoBRET Fold Response (F2RL2; F2RL2, 0.1μM): 1.01; NanoBRET Fold Response (F2RL2; F2RL2, 1μM): 1.12"
Cc1cc2c(s1)Nc1ccccc1N=C2N1CCN(CCCNC(=O)CCOCCOCCOCCOCCNC(=O)CCc2ccc3n2[B-](F)(F)[N+]2=C(c4ccc[nH]4)C=CC2=C3)CC1 [Olanzapine-a-2-NB590],0.97,1.06,0.97,1.01,
COc1ccccc1N1CCN(CCCCN2C(=O)c3ccc(CNC(=O)CCOCCNC(=O)c4ccc(CNC(=O)CCc5ccc6n5[B-](F)(F)[N+]5=C(c7ccc[nH]7)C=CC5=C6)cc4)cc3C2=O)CC1 [NAN-190-3-NB590],0.76,1.30,1.10,0.95,
CC(C)N(CC[C@H](c1ccccc1)c1cc(CCNC(=O)CCOCCOCCOCCOCCNC(=O)CCc2ccc3n2[B-](F)(F)[N+]2=C(c4ccc[nH]4)C=CC2=C3)ccc1O)C(C)C [Tolterodine-2-NB590],1.00,1.22,1.02,1.04,
CN(C)CCC=C1c2ccccc2CCc2ccc(C(=O)NCCNC(=O)CCOCCOCCOCCOCCNC(=O)CCc3ccc4n3[B-](F)(F)[N+]3=C(c5ccc[nH]5)C=CC3=C4)cc21 [Amitriptyline-b-2-NB590],,,,,"NanoBRET Fold Response (LTB4R2; tracer at 0.1μM, listed as amitriptyline-b-2-NB590): 1.03; NanoBRET Fold Response (LTB4R2; [1]): 1.03; NanoBRET Fold Response (F2RL2; tracer at 0.1μM): 1.16; NanoBRET Fold Response (F2RL2; [1]): 0.92"
O=C(CCOCCOCCOCCOCCNC(=O)CCc1ccc2n1[B-](F)(F)[N+]1=C(c3ccc[nH]3)C=CC1=C2)NCCCN1CCN(C2=Nc3ccccc3Oc3ccc(Cl)cc32)CC1 [Loxapine-a-2-NB590],0.90,0.95,1.03,1.12,
CN(C)CCC=C1c2ccccc2CCc2ccc(C(=O)NCCNC(=O)CCOCCOCCOCCOCCNC(=O)CCc3ccc4n3[B-](F)(F)[N+]3=C(c5ccc[nH]5)C=CC3=C4)cc21 [Amitriptyline-a-2-NB590],,,,,NanoBRET Fold Response (LTB4R2; tracer at 0.1μM): 0.97; NanoBRET Fold Response (LTB4R2; tracer at 1μM): 1.08; NanoBRET Fold Response (F2RL2; tracer at 0.1μM): 1.03; NanoBRET Fold Response (F2RL2; tracer at 1μM): 0.99
O=C(CCc1ccc2n1[B-](F)(F)[N+]1=C(c3ccc[nH]3)C=CC1=C2)NCCOCCOCCNC(=O)OCCOCCN1CCN(C2=Nc3ccccc3Sc3ccccc32)CC1 [Quetiapine-a-2-NB590],1.09,1.04,1.06,0.89,
COc1ccccc1N1CCN(CCCCN2C(=O)c3ccc(CNC(=O)CCOCCOCCOCCOCCNC(=O)CCc4ccc5n4[B-](F)(F)[N+]4=C(c6ccc[nH]6)C=CC4=C5)cc3C2=O)CC1 [NAN-190-2-NB590],0.95,1.05,1.02,1.01,
CN1CCN(C2=Nc3cc(Cl)ccc3N(CC(=O)NCCOCCOCCOCCOCCNC(=O)CCc3ccc4n3[B-](F)(F)[N+]3=C(c5ccc[nH]5)C=CC3=C4)c3ccccc32)CC1 [Clozapine-c-2-NB590],,,,,"NanoBRET Fold Response (LTB4R2; LTB4R2, 0.1μM tracer): 1.02; NanoBRET Fold Response (LTB4R2; LTB4R2, 1μM tracer): 0.91; NanoBRET Fold Response (F2RL2; F2RL2, 0.1μM tracer): 1.20; NanoBRET Fold Response (F2RL2; F2RL2, 1μM tracer): 0.97"
COc1ccc2[nH]c(-c3ccc(CNC(=O)CCOCCOCCOCCOCCNC(=O)CCc4ccc5n4[B-](F)(F)[N+]4=C(c6ccc[nH]6)C=CC4=C5)cc3)c(CCNC(C)=O)c2n1 [AzomelatoninICO9-2-NB590],,,,,NanoBRET Fold Response (LTB4R2; 0.1μM tracer): 1.38; NanoBRET Fold Response (LTB4R2; 1μM tracer): 0.99; NanoBRET Fold Response (F2RL2; 0.1μM tracer): 0.86; NanoBRET Fold Response (F2RL2; 1μM tracer): 0.99
O=C(CCOCCOCCOCCOCCNC(=O)CCc1ccc2n1[B-](F)(F)[N+]1=C(c3ccc[nH]3)C=CC1=C2)NCCCN1CCN(C2=Nc3cc(Cl)ccc3Nc3ccccc32)CC1 [Clozapine-a-2-NB590],,,,,"NanoBRET Fold Response (LTB4R2; LTB4R2, 0.1μM tracer): 1.03; NanoBRET Fold Response (LTB4R2; LTB4R2, 1μM tracer): 0.88; NanoBRET Fold Response (F2RL2; F2RL2, 0.1μM tracer): 1.02; NanoBRET Fold Response (F2RL2; F2RL2, 1μM tracer): 1.20"
CCCn1c(=O)c2[nH]c(-c3ccc(OCC(=O)NCCNC(=O)CCOCCNC(=O)c4ccc(CNC(=O)CCc5ccc6n5[B-](F)(F)[N+]5=C(c7ccc[nH]7)C=CC5=C6)cc4)cc3)nc2n(CCC)c1=O [XAC-3-NB590],0.93,0.98,0.95,1.04,
O=C(CCc1ccc2n1[B-](F)(F)[N+]1=C(c3ccc[nH]3)C=CC1=C2)NCc1ccc(C(=O)NCCOCCOCCNCC(O)COc2cccc3ccccc23)cc1 (stereo not drawn) [Propranolol-3-NB590],,,,,"NanoBRET Fold Response (LTB4R2; LTB4R2, 0.1μM): 1.01; NanoBRET Fold Response (LTB4R2; LTB4R2, 1μM): 0.96; NanoBRET Fold Response (F2RL2; F2RL2, 0.1μM): 0.99; NanoBRET Fold Response (F2RL2; F2RL2, 1μM): 1.03"
O=C(CCc1ccc2n1[B-](F)(F)[N+]1=C(c3ccc[nH]3)C=CC1=C2)NCc1ccc(C(=O)NCCOCCC(=O)N[C@@H]2CC[C@@]3(O)[C@H]4Cc5ccc(O)c6c5[C@@]3(CCN4CC3CC3)[C@H]2O6)cc1 [Naltrexone-3-NB590],0.89,1.36,1.07,1.02,
CN(CCC=C1c2ccccc2CCc2ccccc21)C(=O)CCOCCOCCOCCOCCNC(=O)CCc1ccc2n1[B-](F)(F)[N+]1=C(c3ccc[nH]3)C=CC1=C2 [Amitriptyline-e-2-NB590],,,,,NanoBRET Fold Response (LTB4R2; tracer at 1μM): 1.06
N#CN=C(NCCCOc1cccc(CN2CCCCC2)c1)NCCNC(=O)CCOCCOCCOCCOCCNC(=O)CCc1ccc2n1[B-](F)(F)[N+]1=C(c3ccc[nH]3)C=CC1=C2 [Aminopotentidine-2-NB590],0.96,1.04,0.95,1.02,
